For the assay, the target named is T1, human GluN1/GluN2B NMDA receptors (Homo sapiens, UniProt Q13224).
T1 construct: expressed in transfected cells
As to the kind of experiment: Cell-based calcium flux (FLIPR) assay on cloned human NR1/NR2B ion channels expressed in mammalian cells (standard and HTS buffer variants).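 Note: stable Tet-On inducible cell line, Ca2+ influx triggered by glutamate at about EC40 plus 10 µM glycine, fluorescent dye read-out over 5 min, normalized to control wells.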 Background: Calcium flux is commonly read through the fluorescence of an indicator in the cells.

The mark [1] stands for this setting: standard assay buffer (0.5 mM MgCl2 in dye loading buffer; 137 mM NaCl, 4 mM KCl in assay buffer), human GluN1/GluN2B, read-out: NR2B IC50 (μM) standard assay.
[2] abbreviates: HTS assay buffer (1.5 mM MgCl2 dye loading; 150 mM NaCl, 3 mM KCl assay buffer), human GluN1/GluN2B cells, read-out: NR2B IC50 (μM) HTS assay.
Where [3] appears, read: standard assay buffer (0.5 mM MgCl2 dye loading; 137 mM NaCl, 4 mM KCl assay buffer), human GluN1/GluN2B cells, read-out: NR2B IC50 (μM) standard assay.
The mark [4] stands for this setting: HTS assay buffer (1.5 mM MgCl2 in dye loading buffer; 150 mM NaCl, 3 mM KCl in assay buffer), human GluN1/GluN2B, read-out: NR2B IC50 (μM) HTS assay.

Like-named read-outs stand apart in the source and are kept apart here.

T1 sequence (Q13224 27-1484, other chains not shown): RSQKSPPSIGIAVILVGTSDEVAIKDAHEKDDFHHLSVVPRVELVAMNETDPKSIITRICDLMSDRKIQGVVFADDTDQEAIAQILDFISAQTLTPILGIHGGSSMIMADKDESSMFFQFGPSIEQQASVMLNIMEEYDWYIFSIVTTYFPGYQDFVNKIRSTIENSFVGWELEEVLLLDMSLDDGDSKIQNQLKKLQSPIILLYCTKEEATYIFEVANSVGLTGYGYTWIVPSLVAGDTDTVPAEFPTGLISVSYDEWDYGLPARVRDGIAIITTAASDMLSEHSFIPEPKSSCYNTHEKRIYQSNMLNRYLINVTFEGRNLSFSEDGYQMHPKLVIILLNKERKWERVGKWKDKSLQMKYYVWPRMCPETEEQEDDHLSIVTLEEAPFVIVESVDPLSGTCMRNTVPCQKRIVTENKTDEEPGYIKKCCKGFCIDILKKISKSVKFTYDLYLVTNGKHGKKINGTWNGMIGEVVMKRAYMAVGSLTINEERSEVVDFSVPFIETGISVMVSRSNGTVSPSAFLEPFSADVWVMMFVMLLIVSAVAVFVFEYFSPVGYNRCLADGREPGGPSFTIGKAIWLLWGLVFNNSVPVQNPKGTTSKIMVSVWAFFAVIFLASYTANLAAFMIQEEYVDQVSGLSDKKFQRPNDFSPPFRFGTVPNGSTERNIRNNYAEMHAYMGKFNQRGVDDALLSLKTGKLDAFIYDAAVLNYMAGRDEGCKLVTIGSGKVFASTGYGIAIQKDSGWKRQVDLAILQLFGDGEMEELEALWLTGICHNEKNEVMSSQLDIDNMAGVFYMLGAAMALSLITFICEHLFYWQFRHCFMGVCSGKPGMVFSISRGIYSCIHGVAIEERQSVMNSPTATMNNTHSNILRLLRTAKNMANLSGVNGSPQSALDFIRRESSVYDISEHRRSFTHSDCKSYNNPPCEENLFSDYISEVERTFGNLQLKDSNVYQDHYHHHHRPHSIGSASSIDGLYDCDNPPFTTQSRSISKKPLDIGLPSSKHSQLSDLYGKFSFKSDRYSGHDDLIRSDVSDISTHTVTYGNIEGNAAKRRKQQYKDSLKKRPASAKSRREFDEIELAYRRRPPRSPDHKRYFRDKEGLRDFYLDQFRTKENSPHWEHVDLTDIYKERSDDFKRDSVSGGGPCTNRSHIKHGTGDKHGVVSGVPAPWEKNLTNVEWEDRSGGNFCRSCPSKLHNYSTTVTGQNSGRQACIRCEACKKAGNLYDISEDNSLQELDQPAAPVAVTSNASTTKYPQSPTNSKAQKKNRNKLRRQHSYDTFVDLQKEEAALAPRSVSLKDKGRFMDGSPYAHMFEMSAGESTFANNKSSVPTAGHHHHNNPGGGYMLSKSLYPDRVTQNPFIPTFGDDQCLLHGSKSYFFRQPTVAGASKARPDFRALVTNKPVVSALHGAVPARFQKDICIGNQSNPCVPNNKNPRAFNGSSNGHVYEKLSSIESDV

As a reminder, the IC50 is the concentration that inhibits the measured activity by half. Regarding `Cc1cc(-c2cnc3c(c2)n(Cc2cncc(F)c2)c(=O)n3C)ccc1F` [Example 340, 6-(4-Fluoro-3-methyl-phenyl)-1-[(5-fluoro-3-pyridyl)methyl]-3-methyl-imidazo[4,5-b]pyridin-2-one], under setting [1], the IC50 came to 0.052 µM.
In the case of `COc1ccc(-c2cnc3[nH]c(=O)n(CC(=O)N(C)C4CC4)c3c2)cc1` [Example 41, N-Cyclopropyl-2-[6-(4-methoxyphenyl)-2-oxo-3H-imidazo[4,5-b]pyridin-1-yl]-N-methyl-acetamide], the IC50 under setting [2] was 8.72 µM.
With `CNC(=O)Cn1c(=O)[nH]c2ncc(-c3ccc(F)cc3C)cc21` [Example 437, 2-[6-(4-Fluoro-2-methyl-phenyl)-2-oxo-3H-imidazo[4,5-b]pyridin-1-yl]-N-methyl-acetamide], the IC50 under setting [1] turned out to be 0.219 µM.
For the compound `CN(C)c1cccc(-c2cnc3[nH]c(=O)n(Cc4cccc(F)c4)c3c2)c1` [Example 500, 6-[3-(Dimethylamino)phenyl]-1-[(3-fluorophenyl)methyl]-3H-imidazo[4,5-b]pyridin-2-one], the IC50 under setting [1] was 6.08 µM.
`O=C(Cn1c(=O)[nH]c2ncc(-c3cccc(C(F)(F)F)c3)cc21)Nc1ccccn1` [Example 208, 2-[2-Oxo-6-[3-(trifluoromethyl)phenyl]-3H-imidazo[4,5-b]pyridin-1-yl]-N-(2-pyridyl)acetamide]: under setting [3], the IC50 is more than 10 µM.
As to `Cc1cncc(Cn2c(=O)[nH]c3ncc(-c4cc(F)cc(F)c4)cc32)c1` [Example 311, 6-(3,5-Difluorophenyl)-1-[(5-methyl-3-pyridyl)methyl]-3H-imidazo[4,5-b]pyridin-2-one], under setting [3], the IC50 turned out to be 0.028 µM.
Take `Cc1nnc(Cn2c(=O)n(C)c3ncc(-c4ccc(F)c(C)c4F)cc32)o1` [Example 575, 6-(2,4-Difluoro-3-methyl-phenyl)-3-methyl-1-[(5-methyl-1,3,4-oxadiazol-2-yl)methyl]imidazo[4,5-b]pyridin-2-one]: the IC50 under setting [1] came to 0.028 µM.
In the case of `Cc1cc(Cn2c(=O)n(C)c3ncc(-c4ccc(C(F)F)s4)cc32)no1` [Example 564, 6-[5-(Difluoromethyl)-2-thienyl]-3-methyl-1-[(5-methylisoxazol-3-yl)methyl]imidazo[4,5-b]pyridin-2-one], the IC50 under setting [1] was 0.087 µM.
On to `O=c1[nH]c2ncc(-c3cccc(C(F)(F)F)c3)cc2n1Cc1ncccn1` [Example 227, 1-(Pyrimidin-2-ylmethyl)-6-[3-(trifluoromethyl)phenyl]-3H-imidazo[4,5-b]pyridin-2-one], for which, under setting [3], the IC50 came to 0.096 µM.
As for `COc1ccc(-c2cnc3[nH]c(=O)n(CC(=O)NC4CC4)c3c2)cc1` [Example 38, N-Cyclopropyl-2-[6-(4-methoxyphenyl)-2-oxo-3H-imidazo[4,5-b]pyridin-1-yl]acetamide], the IC50 under setting [2] was 1.01 µM.
For the compound `COc1ccc(-c2cnc3[nH]c(=O)n(CC(=O)c4cccs4)c3c2)cc1F` [Example 457, 6-(3-Fluoro-4-methoxy-phenyl)-1-[2-oxo-2-(2-thienyl)ethyl]-3H-imidazo[4,5-b]pyridin-2-one], the IC50 under setting [1] worked out at 0.33 µM.
For `Cn1c(=O)n(CC(=O)N2CCC2)c2cc(-c3ccc(C(F)(F)C(F)(F)F)s3)cnc21` [Example 111, 1-[2-(Azetidin-1-yl)-2-oxo-ethyl]-3-methyl-6-[5-(1,1,2,2,2-pentafluoroethyl)-2-thienyl]imidazo[4,5-b]pyridin-2-one], the IC50 under setting [3] stood at 0.037 µM.
Consider `CNC(=O)Cn1c(=O)[nH]c2ncc(-c3ccc(F)cc3OC)cc21` [Example 440, 2-[6-(4-Fluoro-2-methoxy-phenyl)-2-oxo-3H-imidazo[4,5-b]pyridin-1-yl]-N-methyl-acetamide], for which the IC50 under setting [1] amounted to 0.358 µM.
For `Cn1c(=O)n(CC(=O)N2CC(F)C2)c2cc(-c3ccc(C(F)F)s3)cnc21` [Example 10, 6-[5-(Difluoromethyl)-2-thienyl]-1-[2-(3-fluoroazetidin-1-yl)-2-oxo-ethyl]-3-methyl-imidazo[4,5-b]pyridin-2-one], the IC50 under setting [3] was 0.01 µM.
As to `Cc1cc(F)ccc1-c1cnc2[nH]c(=O)n(Cc3ccc(F)cc3)c2c1` [Example 492, 6-(4-Fluoro-2-methyl-phenyl)-1-[(4-fluorophenyl)methyl]-3H-imidazo[4,5-b]pyridin-2-one], the IC50 under setting [4] turned out to be 6.12 µM.
For `O=c1[nH]cccc1Cn1c(=O)[nH]c2ncc(-c3cccc(C(F)(F)F)c3)cc21` [Example 32, 1-[(2-Oxo-1H-pyridin-3-yl)methyl]-6-[3-(trifluoromethyl)phenyl]-3H-imidazo[4,5-b]pyridin-2-one], under setting [3], the IC50 was 8.33 µM.
Turning to `COCCNC(=O)Cn1c(=O)[nH]c2ncc(-c3ccc(F)cc3OC)cc21` [Example 446, 2-[6-(4-Fluoro-2-methoxy-phenyl)-2-oxo-3H-imidazo[4,5-b]pyridin-1-yl]-N-(2-methoxyethyl)acetamide], the IC50 under setting [1] worked out at 0.204 µM.
Consider `CN(C)C(=O)Cn1c(=O)n(C)c2ncc(-c3ccc(C(F)(F)F)s3)cc21` [Example 28, N,N-Dimethyl-2-[3-methyl-2-oxo-6-[5-(trifluoromethyl)-2-thienyl]imidazo[4,5-b]pyridin-1-yl]acetamide], for which the IC50 under setting [3] was 0.034 µM.
Still for that read-out and setting: the value for `O=c1[nH]c2ncc(-c3cccc(C(F)(F)F)c3)cc2n1CCN1CC(C(F)(F)F)C1` [Example 166, 1-[2-[3-(Trifluoromethyl)azetidin-1-yl]ethyl]-6-[3-(trifluoromethyl)phenyl]-3H-imidazo[4,5-b]pyridin-2-one] was 3.48 µM.
For `O=c1[nH]c2ncc(-c3cccc(OC(F)F)c3)cc2n1Cc1cncc(F)c1` [Example 304, 6-[3-(Difluoromethoxy)phenyl]-1-[(5-fluoro-3-pyridyl)methyl]-3H-imidazo[4,5-b]pyridin-2-one], the IC50 under setting [3] came to 0.021 µM.
Take `Cc1cc(-c2cnc3[nH]c(=O)n(Cc4ccn(C)n4)c3c2)ccc1F` [Example 129, 6-(4-Fluoro-3-methyl-phenyl)-1-[(1-methylpyrazol-3-yl)methyl]-3H-imidazo[4,5-b]pyridin-2-one]: the IC50 under setting [3] amounted to 0.394 µM.
For the compound `N#Cc1ccccc1Cn1c(=O)[nH]c2ncc(-c3ccc(Cl)cc3)cc21` [Example 482, 2-[[6-(4-Chlorophenyl)-2-oxo-3H-imidazo[4,5-b]pyridin-1-yl]methyl]benzonitrile], under setting [4], the IC50 worked out at 1.41 µM.
In the case of `O=C(Cn1c(=O)[nH]c2ncc(-c3cccc(C(F)(F)F)c3)cc21)c1cccs1` [Example 214, 1-[2-Oxo-2-(2-thienyl)ethyl]-6-[3-(trifluoromethyl)phenyl]-3H-imidazo[4,5-b]pyridin-2-one], the IC50 under setting [3] was more than 10 µM.
In the case of `O=C(Cn1c(=O)[nH]c2ncc(-c3cccc(C(F)(F)F)c3)cc21)C1CC1` [Example 239, 1-(2-Cyclopropyl-2-oxo-ethyl)-6-[3-(trifluoromethyl)phenyl]-3H-imidazo[4,5-b]pyridin-2-one], the IC50 under setting [3] stood at 0.034 µM.
Still for that read-out and setting: the result for `O=c1[nH]c2ncc(-c3cccc(Cl)c3)cc2n1Cc1cccnc1` [Example 296, 6-(3-Chlorophenyl)-1-(3-pyridylmethyl)-3H-imidazo[4,5-b]pyridin-2-one] reads 0.029 µM.
On to `O=C(Cn1c(=O)[nH]c2ncc(-c3cccc(C(F)(F)F)c3)cc21)c1nccs1` [Example 215, 1-(2-Oxo-2-thiazol-2-yl-ethyl)-6-[3-(trifluoromethyl)phenyl]-3H-imidazo[4,5-b]pyridin-2-one], for which the IC50 under setting [3] stood at 0.365 µM.
For the compound `Cc1cc(C)cc(-c2cnc3[nH]c(=O)n(CC(=O)NC4CC4)c3c2)c1` [Example 39, N-Cyclopropyl-2-[6-(3,5-dimethylphenyl)-2-oxo-3H-imidazo[4,5-b]pyridin-1-yl]acetamide], the IC50 under setting [2] turned out to be 1.03 µM.
Take `Cn1c(=O)n(Cc2cncc(F)c2)c2cc(-c3cccc(Cl)c3F)cnc21` [Example 349, 6-(3-Chloro-2-fluoro-phenyl)-1-[(5-fluoro-3-pyridyl)methyl]-3-methyl-imidazo[4,5-b]pyridin-2-one]: the IC50 under setting [1] was 0.107 µM.
As for `Cc1cccc(-c2cnc3[nH]c(=O)n(CCN4CCC4)c3c2)c1C` [Example 169, 1-[2-(Azetidin-1-yl)ethyl]-6-(2,3-dimethylphenyl)-3H-imidazo[4,5-b]pyridin-2-one], the IC50 under setting [3] came to 0.217 µM.
As for `Cc1cc(-c2cnc3c(c2)n(CC(=O)N2CC(F)C2)c(=O)n3C)ccc1F` [Example 401, 1-[2-(3-Fluoroazetidin-1-yl)-2-oxo-ethyl]-6-(4-fluoro-3-methyl-phenyl)-3-methyl-imidazo[4,5-b]pyridin-2-one], under setting [1], the IC50 came out at 0.016 µM.
Turning to `O=C(Cn1c(=O)[nH]c2ncc(-c3cccc(C(F)(F)F)c3)cc21)NC1CCCC1` [Example 205, N-Cyclopentyl-2-[2-oxo-6-[3-(trifluoromethyl)phenyl]-3H-imidazo[4,5-b]pyridin-1-yl]acetamide], the IC50 under setting [3] was determined as 0.523 µM.
Same read-out and setting: the result for `CCC(=O)Cn1c(=O)[nH]c2ncc(-c3ccc(F)c(C)c3F)cc21` [Example 30, 6-(2,4-Difluoro-3-methyl-phenyl)-1-(2-oxobutyl)-3H-imidazo[4,5-b]pyridin-2-one] reads 0.011 µM; that for `O=c1[nH]c2ncc(-c3cccc(C(F)(F)F)c3)cc2n1CCNC1CCC1` [Example 150, 1-[2-(Cyclobutylamino)ethyl]-6-[3-(trifluoromethyl)phenyl]-3H-imidazo[4,5-b]pyridin-2-one], 0.277 µM.
On to `Cn1c(=O)n(Cc2cncc(F)c2)c2cc(-c3cccc(OC(F)F)c3)cnc21` [Example 342, 6-[3-(Difluoromethoxy)phenyl]-1-[(5-fluoro-3-pyridyl)methyl]-3-methyl-imidazo[4,5-b]pyridin-2-one], for which the IC50 under setting [1] was 0.138 µM.
Take `CCc1ccc(-c2cnc3c(c2)n(CC(=O)N2CC(F)C2)c(=O)n3C)s1` [Example 88, 6-(5-Ethyl-2-thienyl)-1-[2-(3-fluoroazetidin-1-yl)-2-oxo-ethyl]-3-methyl-imidazo[4,5-b]pyridin-2-one]: the IC50 under setting [3] was found to be 0.02 µM.

Source of the values: patent US11759455B2, “Substituted 1H-imidazo[4,5-b]pyridin-2(3H)-ones and their use as GLUN2B receptor modulators” (JANSSEN PHARMACEUTICA NV, priority 2016, dated 2023).
